Values of other authors as cited in publication PMC9992518, “Structural basis of peptide recognition and activation of endothelin receptors” (Nature Communications, 2023).

What was measured:
ETBR [1] = tested on: ETBR; parameters: method as in earlier work; details: ETBR activated by ET-3
ETAR [2] = tested on: ETAR
ETAR [3] = target: ETAR; remark: listed apart in the source
Excerpt: (§1) S6c bears an identical substitution from K9 to E9 compared with s6b (Fig. 1a). The charge of the ninth residue has been thought to determine the ETR selectivity of s6c over s6b[33], supporting the importa ...

ETBR [4] = target: ETBR
Excerpt: as §1

LgBiT = details: NanoBiT complementary peptide
Excerpt: NanoLuc Binary Technology (NanoBiT, Promega) is originally a structurally complementary reporter system to evaluate protein-protein interaction in cells. NanoBiT is composed of a large subunit (LgBiT, 18 kDa) and an 11 amino acid complementary peptide (SmBiT, peptide, […]) with low affinity for LgBiT, both of which are connected to two interacting target proteins of interest, respectively. When the two proteins interact, the two subunits assemble into an active enzyme and generate a bright luminescent signal in the presence of a substrate. To improve the homogeneity and stability o ...

ET-3: endothelin, 21-amino-acid peptide hormone
effect on ET-1-mediated effects upon ETBR activation (in words) (ETBR [1]): can inhibit the ET-1-mediated effects
fold weaker affinity for ETAR (ETAR [2]; ETAR, relative to ET-1 and ET-2): 100 fold

Sarafotoxin s6c
ETBR selectivity (in words) (ETAR [2]; from reduced affinity for ETAR compared with s6b): substantial ETBR selectivity

Succinyl-[Glu^9, Ala^11,15]-ET-1(8-21) [IRL1620]
Ki (ETAR [3]): 1900 nM
Ki (ETBR [4]): 0.016 nM

VSGWRLFKKIS [HiBiT]
affinity for LgBiT (in words) (LgBiT): high affinity

VTGYRLFEEIL [SmBiT]
affinity for LgBiT (in words) (LgBiT): low affinity
